Measured values from patent US12357596B2, “Compounds for prevention and treatment of obesity and related disorders” (ABREXA PHARMACEUTICALS, INC., priority 2019, dated 2025).
Marks after values point to notes of the source that are not given here.

Test: 28-Day Oral (Gavage) Toxicity Study in Beagle Dogs with a 14-Day Recovery Period at 0, 1, 10 and 30 mg/kg/day (body weight)
Format: in vivo
Protocol: J147 was administered once daily to beagle dogs via oral gavage for up to 28 days at a daily dose of 0, 1, 10 and 30 mg/kg. J174 was prepared in a vehicle formulation comprising 5% ethanol, 5% DMSO and 90% corn oil (v/v/v). Block Lab Diet (Certified Canine Diet #5007, PMI Nutrition International, Inc.) was offered via limited feedings, except during designated periods. The animals were offered food 2 hours postdose on each dosing day for 2 to 5 hours. Food was offered 2 to 5 hours/day during the acclimation period and during the recovery period. Tap water was available ad libitum via an automatic watering system. The study protocol is shown below in Table 10.

## COc1cccc(/C=N/N(C(=O)C(F)(F)F)c2ccc(C)cc2C)c1 [J147]
dogs, 28-day oral gavage
  Conclusion on body weight: induces weight loss and inhibits weight gain
dogs, Groups 3 and 4, 10 mg/kg/day and 30 mg/kg/day
  Body weight and food consumption finding: Body weight loss with lower food consumption
dogs, males and females, 10 mg/kg/day
  Weight lost compared to pre-test levels (up to): up to −9%
Female dogs, 1 mg/kg/day, Day 3
  Body Weight, Mean: 6.463 kg
Female dogs, 1 mg/kg/day, Day 7
  Body Weight, Mean: 6.513 kg
Female dogs, 1 mg/kg/day, Day 10
  Body Weight, Mean: 6.675 kg
Female dogs, 1 mg/kg/day, Day 14
  Body Weight, Mean: 6.688 kg
Female dogs, 1 mg/kg/day, Day 17
  Body Weight, Mean: 6.763 kg
Female dogs, 1 mg/kg/day, Day 21
  Body Weight, Mean: 6.788 kg
Female dogs, 1 mg/kg/day, Day 24
  Body Weight, Mean: 6.813 kg
Female dogs, 1 mg/kg/day, Day 28
  Body Weight, Mean: 6.813 kg
Female dogs, 1 mg/kg/day, Day −1 (pre-dose)
  Body Weight, Mean: 6.413 kg
Female dogs, 10 mg/kg/day
  Animals that lost weight: 4 of 4
Female dogs, 10 mg/kg/day, Day 3
  Body Weight, Mean: 6.363 kg
Female dogs, 10 mg/kg/day, Day 7
  Body Weight, Mean: 6.250 kg
Female dogs, 10 mg/kg/day, Day 10
  Body Weight, Mean: 6.275 kg
Female dogs, 10 mg/kg/day, Day 14
  Body Weight, Mean: 6.150 kg
Female dogs, 10 mg/kg/day, Day 17
  Body Weight, Mean: 6.163 kg
Female dogs, 10 mg/kg/day, Day 21
  Body Weight, Mean: 6.063 kg
Female dogs, 10 mg/kg/day, Day 24
  Body Weight, Mean: 6.038 kg
Female dogs, 10 mg/kg/day, Day 28
  Body Weight, Mean: 5.988 kg
Female dogs, 10 mg/kg/day, Day −1 (pre-dose)
  Body Weight, Mean: 6.325 kg
Female dogs, 30 mg/kg/day
  Animals that lost weight: 6 of 6
  Weight lost, of pretest levels (up to): ≤ −17%
Female dogs, 30 mg/kg/day, Day 3
  Body Weight, Mean: 6.308 kg
Female dogs, 30 mg/kg/day, Day 7
  Body Weight, Mean: 6.242 kg
Female dogs, 30 mg/kg/day, Day 10
  Body Weight, Mean: 6.192 kg
Female dogs, 30 mg/kg/day, Day 14
  Body Weight, Mean: 6.033 kg
Female dogs, 30 mg/kg/day, Day 17
  Body Weight, Mean: 5.858^a kg
Female dogs, 30 mg/kg/day, Day 21
  Body Weight, Mean: 5.700^b kg
Female dogs, 30 mg/kg/day, Day 24
  Body Weight, Mean: 5.575^b kg
Female dogs, 30 mg/kg/day, Day 28
  Body Weight, Mean: 5.525^b kg
Female dogs, 30 mg/kg/day, Day −1 (pre-dose)
  Body Weight, Mean: 6.258 kg
Male dogs, 1 mg/kg/day, Day 3
  Body Weight, Mean: 7.850 kg
Male dogs, 1 mg/kg/day, Day 7
  Body Weight, Mean: 7.838 kg
Male dogs, 1 mg/kg/day, Day 10
  Body Weight, Mean: 8.000 kg
Male dogs, 1 mg/kg/day, Day 14
  Body Weight, Mean: 8.000 kg
Male dogs, 1 mg/kg/day, Day 17
  Body Weight, Mean: 8.075 kg
Male dogs, 1 mg/kg/day, Day 21
  Body Weight, Mean: 8.200 kg
Male dogs, 1 mg/kg/day, Day 24
  Body Weight, Mean: 8.325 kg
Male dogs, 1 mg/kg/day, Day 28
  Body Weight, Mean: 8.250 kg
Male dogs, 1 mg/kg/day, Day −1 (pre-dose)
  Body Weight, Mean: 7.813 kg
Male dogs, 10 mg/kg/day
  Animals that lost weight: 3 of 4
Male dogs, 10 mg/kg/day, Day 3
  Body Weight, Mean: 7.588 kg
Male dogs, 10 mg/kg/day, Day 7
  Body Weight, Mean: 7.675 kg
Male dogs, 10 mg/kg/day, Day 10
  Body Weight, Mean: 7.763 kg
Male dogs, 10 mg/kg/day, Day 14
  Body Weight, Mean: 7.625 kg
Male dogs, 10 mg/kg/day, Day 17
  Body Weight, Mean: 7.563 kg
Male dogs, 10 mg/kg/day, Day 21
  Body Weight, Mean: 7.663 kg
Male dogs, 10 mg/kg/day, Day 24
  Body Weight, Mean: 7.638 kg
Male dogs, 10 mg/kg/day, Day 28
  Body Weight, Mean: 7.500 kg
Male dogs, 10 mg/kg/day, Day −1 (pre-dose)
  Body Weight, Mean: 7.563 kg
Male dogs, 30 mg/kg/day
  Animals that lost weight: 5 of 6
  Weight lost, of pretest levels (up to): up to −12%
Male dogs, 30 mg/kg/day, Day 3
  Body Weight, Mean: 7.900 kg
Male dogs, 30 mg/kg/day, Day 7
  Body Weight, Mean: 7.933 kg
Male dogs, 30 mg/kg/day, Day 10
  Body Weight, Mean: 8.008 kg
Male dogs, 30 mg/kg/day, Day 14
  Body Weight, Mean: 7.967 kg
Male dogs, 30 mg/kg/day, Day 17
  Body Weight, Mean: 7.883 kg
Male dogs, 30 mg/kg/day, Day 21
  Body Weight, Mean: 7.800 kg
Male dogs, 30 mg/kg/day, Day 24
  Body Weight, Mean: 7.825 kg
Male dogs, 30 mg/kg/day, Day 28
  Body Weight, Mean: 7.600 kg
Male dogs, 30 mg/kg/day, Day −1 (pre-dose)
  Body Weight, Mean: 7.908 kg
